Source: patent US8952192B2, “Phosphorylated and branched dihydroxy-pentane-dione (DPD) analogs as quorum sensing inhibitors in bacteria” (University of Maryland, College Park, priority 2011, dated 2015)

What was measured:
Format in all cases: cell-based
[1] = tested on: E. coli biofilms (K-12 MG1655); assay: Biofilm maturation in the presence of AI-2 analog (microfluidic flow cell, confocal microscopy, COMSTAT)
Description: (§1) The E. coli biofilms were formed using the strain K-12 MG1655 ATCC(47076). P. aeruginosa biofilms were formed using wild type strain PAO1. For both strains, overnight cultures were diluted to an OD600 of 0.25, introduced into the microfluidic channel, and incubated with no flow at 37° C. for 2 h. LB (Luria Bertani) growth medium was then continuously flowed into the device at a rate of 10 μL/hr. As needed, this medium was supplemented with various concentrations of analog or antibiotic at specified times. In studies of biofilm inhibition, after 2 hours of cell incubation, the analog diluted in LB medium is flown into the microfluidic channel for 48 hours at 10 μL/hr. In studies of effects on pre-formed biofilms, LB is introduced over the cells at 10 μL/hr for a period of 36 to 48 hours to yield stable biofilms. Then, the analog or analog-antibiotic combination was introduced for an additional 36 to 48 hours.
(§2) Biofilms were stained in situ for microscopy. They were first treated with a Live/Dead bacterial labeling kit (Invitrogen #L7012) in which two labeling components were mixed in a 1:1 ratio to a final volume of 10 μL. The dye was introduced into the channel at 10 μL/hr, the same flow rate as during biofilm growth. This treatment was then followed by 10 μL/hr of a 100 μg/mL calcofluor (Fluorescence Brightener 28, Sigma #F3543) solution for labeling polysaccharides contained in the biofilm matrix. The dyes are fixed by flowing in 3% paraformaldehyde at the same flow rate.
(§3) Labeled samples are imaged using a confocal microscope (Zeiss LSM710). For unpatterned coverslips, Z-stacks were obtained at 7 points in each microfluidic channel, each stack was comprised of 150 slices. For patterned coverslips used while measuring the optical density of the biofilms, two stacks were obtained in each channel (i.e. one at each pinhole). The image stacks were analyzed using COMSTAT, which provides morphological characteristics. Average biofilm thickness and biomass were averaged over the image stacks obtained at each of these 7 data points in the microfluidic channel. Additionally, surface reconstructions of the biofilms were created using Imaris (Bitplane) to aid in visualization of the resulting structures.

E. coli W3110 pCT6 = assay: Trispecies synthetic ecosystem: AI-2 stimulated GFP expression, flow cytometry; details: trispecies co-culture, flow cytometry after 8 hours; 60.7% without analog
From the text: To investigate the effect of the DPD analogs in a mixed bacterial environment, a synthetic ecosystem composed of three different bacterial populations was assembled. Specifically, S. typhimurium MET708, V. harveyi BB170 and E. coli W3110 (pCT6), each luxS^+ (Table 2), and each producing their native AI-2 were co-cultured in the same tubes. By design, each species was selected so that a different reporter probe would indicate the specific bacterium's QS response: S. typhimurium (MET708) expresses β-galactosidase; V. harveyi (BB170) elicits bioluminescience; and E. coli (W331) are engineered to synthesize GFP. In this way, their responses can be differentiated and quantified in response to AI-2.
The S. typhimurium MET708, V. harveyi BB170 and E. coli W3110 pCT6 were each cultured separately overnight in LM medium supplemented with the appropriate antibiotic. […] The V. harveyi luminescence response was measured after 2.5 hours. The S. typhimurium lacZ (β-galactosidase) activity was measured after 4 hours. The E. coli response was determined after 8 hours, by fixing the cells with 1:1 cold 4% paraformaldehyde and using flow cytometric analysis. Samples were analyzed by flow cytometery (FACS Canto II, BD 394 Biosciences), with 20,000 gated events analyzed per sample.

V. harveyi BB170 = assay: QS response (bioluminescence), trispecies synthetic ecosystem; details: 40 μM, LM media
Description: The effect of isobutyl-DPD or isopropyl-DPD on QS associated bioluminescence production by V. harveyi was recorded by measuring the light production from reporter strain, V. harveyi BB170. The analogs were added at concentrations of (20 μM or 40 μM) to V. harveyi BB170 which was assayed as previously described.
The S. typhimurium MET708, V. harveyi BB170 and E. coli W3110 pCT6 were each cultured separately overnight in LM medium supplemented with the appropriate antibiotic. V. harveyi BB170, S. typhimurium MET708 and E. coli MDAI-2 were diluted (1:4:8), respectively, into a single 1 ml volume of fresh LM medium without antibiotics. The co-culture was supplemented with either 20 μM or 40 μM analog initially and again after 3 and 5 hours of growth. The V. harveyi luminescence response was measured after 2.5 hours. The S. typhimurium lacZ (β-galactosidase) activity was measured after 4 hours. The E. coli response was determined after 8 hours, by fixing the cells with 1:1 cold 4% paraformaldehyde and using flow cytometric analysis. Samples were analyzed by flow cytometery (FACS Canto II, BD 394 Biosciences), with 20,000 gated events analyzed per sample.

[2] = tested on: pre-formed P. aeruginosa biofilms (PAO1); assay: Effects on pre-formed P. aeruginosa biofilms (microfluidic flow cell, COMSTAT, optical density)
Description: as §1, §2, §3
The data corresponding to the change in optical density of the biofilms were obtained from the photodiodes using the standard methodologies. Data for each channel (the average of the response of the two photodiodes) was normalized with respect to the optical density at 48 hours; this method reflects that as of 48 hours, the biofilms have been grown under identical conditions although their optical density values may not be identical. Additionally, since the optical density data itself fluctuates as the biofilm grows, the data for each curve was fitted using a Churchill model (Churchill et al, 1972), represented by log N=[f1^−1+f2^−1]^−1 (1)

Row | SMILES | average biofilm biomass ([1]; 40 μM, 48 h, LB only 14 μm^3/μm^2) [μm^3/μm^2] | average biofilm thickness ([1]; 40 μM, 48 h, LB only 22 μm) [μm] | inhibition of biofilm growth ([1]; 40 μM, 48 h continuous exposure in LB) [%] | effect on biofilm thickness of increasing concentration, in words ([1]; 100 μM versus 40 μM) | QS positive (green, GFP) cells of the E. coli population after analog addition (E. coli W3110 pCT6) [%] | decrease of bioluminescence in V. harveyi (V. harveyi BB170) [%] | biofilm reduction ([2]; 100 uM phenyl DPD alone) | biofilm reduction ([2]; gentamicin and 100 uM phenyl DPD combined) [%] | biofilm biomass ([2]; phenyl-DPD 100 μM combined with gentamicin 5 μg/ml, untreated 15 μm^3/μm^2) [μm^3/μm^2] | biofilm thickness ([2]; phenyl-DPD 100 μM combined with gentamicin 5 μg/ml, untreated 26 μm) [μm] | course of biofilm optical density after 48 h, in words ([2]; phenyl-DPD combined with gentamicin, continuous optical density measurement)
1 | CC(C)CC(=O)C(=O)[C@@H](O)CO [Isobutyl-DPD, isobutyl-DPD] | 3.5 | 7 | ~70 | no further inhibitory effect | 0.7 | 33 | – | – | – | – | –
2 | O=C(C(=O)C(O)CO)c1ccccc1 (centres unmarked) [Phenyl-DPD, Phenyl DPD] | – | – | – | – | – | – | about 40% | ~100 | < 2 | 2 | reversed biofilm growth
